From ChEMBL document CHEMBL5365403, “Synthesis of proposed structure of ledebourin A” (Bioorg Med Chem Lett, 2023) come the findings set out here.

Data set [1] has as its system HepG2. Kind of data set: Hepatoprotective activity against GA-induced human HepG2 cells assessed as cell viability at 10 uM pre-incubated for 2 hrs followed by GA addition and measured after 22 hrs by MTT assay (Rvb=37% ). The format is functional. The conditions noted are these: time 24 hrs, read-out: Activity. For orientation: Tetrazolium dyes change colour on reduction, which living cells bring about.

In data set [2] the test system is HepG2. In words: Hepatoprotective activity against GA-induced human HepG2 cells assessed as reduction in Bax protein expression at 5 to 10 uM. The format is functional, cell-based. The conditions noted are these: dose 5-10 µM.
Data set [3] relates to HepG2. In words: Cytotoxicity against human HepG2 cells assessed as reduction cell viability at 10 uM after 24 hrs by MTT assay. The data set is classed as toxicity, cell-based. The conditions noted are these: hepg2, 24 h.

The source made the active and inactive calls. The rule behind the calls is not given here.

Consider `COc1ccc(C[C@H]2COc3cc4c(c(O)c3C2=O)C=CC(C)(C)O4)cc1`, for which, in data set [1], the viability at 10 µM amounted to 47%. In data set [2], the outcome was Active. The Activity entry in data set [3] was “Non-Toxic”.
Take `COc1ccc(C[C@H]2COc3c4c(cc(O)c3C2=O)OC(C)(C)C=C4)cc1`: the viability at 10 µM in data set [1] worked out at 51%. In data set [2], the result was Active. Further, the Activity result in data set [3] was “Non-Toxic”.
